# “Also recorded” adds a separate entry of the source. Like-named read-outs stand apart in the source and are kept apart here.
# Legend:
# 5-HT transporter [1] = biological target: T1, 5-HT transporter (Rattus norvegicus, UniProt P31652); test: Displacement of [^3 H]paroxetine binding to 5-HT transporter sites in rat frontal cortex; design: from tissue; host or cells: rat frontal cortex; conditions: for selectivity towards the 5-HT transporter in terms of binding and inhibition, in words: binding and uptake inhibition; for displacement of [^3 H]paroxetine binding, in words: FIG. 2 / text; for selectivity between dopamine and 5-HT transporters, in words: binding assays; for times more potent than cocaine at 5-HT transporter sites: vs cocaine, [^3 H]paroxetine binding
# dopamine transporter [2] = biological target: T2, dopamine transporter (Rattus norvegicus, UniProt P23977); test: Displacement of [^125 I]RTI-55 binding to dopamine transporters in rat striatal membranes; conditions: for Ki: [^125 I]RTI-55 10-20 pM, rat striatal membranes; for binding ratio: 5-HT K1 / DA K1, higher numbers demonstrate relatively greater dopamine transporter potency; for displacement of [^125 I]RTI-55 binding, in words: FIG. 1
# T2 construct: was used to label dopamine transporters in rat striatal membranes; from tissue; host or cells: rat striatal membranes
# 5-HT transporter [3] = biological target: T1, 5-HT transporter; test: Inhibition of [^3 H]5-HT uptake in dissociated frontal cortex cells from fetal and adult rat brain; type: cell-based; design: from tissue; host or cells: rat frontal cortex; conditions: for IC50: frontal cortex cells, fetal and adult rat brain; for blocking [^3 H]5-HT uptake in cortical cells, in words: FIG. 4
# dopamine transporter [4] = biological target: T2, dopamine transporter; test: Inhibition of [3H]dopamine uptake into dissociated striatal cells from fetal and adult rat brain; type: cell-based; conditions: for uptake ratio: 5-HT uptake IC50 / DA uptake IC50; for inhibition of [3H]dopamine uptake into striatal cells, in words: FIG. 3; for dopamine: 5-HT ratio: regardless of the assay used (binding or uptake)
# [5] = vs cocaine, [^125 I]RTI-55 binding
# [6] = read-out: [^3 H] paroxetine K1, [^3 H]paroxetine, rat frontal cortex
# T1 sequence (P31652 whole entry): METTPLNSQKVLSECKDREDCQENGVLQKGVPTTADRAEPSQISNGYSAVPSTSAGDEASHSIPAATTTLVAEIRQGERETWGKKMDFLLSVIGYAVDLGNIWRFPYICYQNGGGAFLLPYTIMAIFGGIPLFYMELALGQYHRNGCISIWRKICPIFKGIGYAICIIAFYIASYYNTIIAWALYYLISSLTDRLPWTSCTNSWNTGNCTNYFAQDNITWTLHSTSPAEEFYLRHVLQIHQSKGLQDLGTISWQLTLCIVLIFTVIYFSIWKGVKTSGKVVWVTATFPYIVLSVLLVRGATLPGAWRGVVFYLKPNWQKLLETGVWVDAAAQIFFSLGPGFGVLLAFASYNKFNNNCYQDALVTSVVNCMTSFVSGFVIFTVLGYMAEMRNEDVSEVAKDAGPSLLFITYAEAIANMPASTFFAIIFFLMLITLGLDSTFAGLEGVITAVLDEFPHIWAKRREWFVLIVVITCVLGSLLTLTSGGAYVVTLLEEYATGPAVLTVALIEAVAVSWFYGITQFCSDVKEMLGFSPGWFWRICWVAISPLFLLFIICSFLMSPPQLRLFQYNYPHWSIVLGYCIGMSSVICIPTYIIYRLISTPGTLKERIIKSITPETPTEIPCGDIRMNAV
# T2 sequence (P23977 whole entry): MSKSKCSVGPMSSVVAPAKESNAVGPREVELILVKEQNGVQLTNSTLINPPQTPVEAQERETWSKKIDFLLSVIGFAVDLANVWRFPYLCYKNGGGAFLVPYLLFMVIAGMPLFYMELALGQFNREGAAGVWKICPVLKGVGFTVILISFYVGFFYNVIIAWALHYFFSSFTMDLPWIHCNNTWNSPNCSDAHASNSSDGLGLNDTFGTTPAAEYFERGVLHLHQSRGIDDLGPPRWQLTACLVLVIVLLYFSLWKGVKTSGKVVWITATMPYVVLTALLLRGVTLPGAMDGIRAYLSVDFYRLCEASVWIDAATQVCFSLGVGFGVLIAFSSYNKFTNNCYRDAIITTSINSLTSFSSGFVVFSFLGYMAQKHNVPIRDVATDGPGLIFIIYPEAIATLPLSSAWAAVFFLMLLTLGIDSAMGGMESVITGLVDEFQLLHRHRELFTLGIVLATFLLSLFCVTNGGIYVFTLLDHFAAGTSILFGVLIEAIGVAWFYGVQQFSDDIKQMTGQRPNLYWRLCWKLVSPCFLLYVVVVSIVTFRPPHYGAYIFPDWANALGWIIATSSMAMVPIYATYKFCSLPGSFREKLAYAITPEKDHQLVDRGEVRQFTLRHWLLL
smiles,measurement,setting,value
CC(=O)[C@@H]1[C@@H](c2ccc(F)cc2)C[C@@H]2CC[C@H]1N2C (relative stereo) [WF-1],Ki,5-HT transporter [1],> 10000 nM
same,Ki,dopamine transporter [2],929 ± 160 nM
CC(=O)[C@@H]1[C@@H](c2ccccc2)C[C@@H]2CC[C@H]1N2C (relative stereo) [WF-2],Ki,5-HT transporter [1],> 10000 nM
same,Ki,dopamine transporter [2],7270 ± 1210 nM
CC(=O)[C@@H]1[C@@H](c2ccc(C)cc2)C[C@@H]2CC[C@H]1N2C (relative stereo) [WF-3],Ki,5-HT transporter [1],> 10000 nM
same,Ki,dopamine transporter [2],775 ± 57 nM
CC(=O)[C@H]1[C@@H](c2ccc(C)cc2)C[C@@H]2CC[C@H]1N2C (relative stereo) [WF-4],binding ratio,dopamine transporter [2],12.4
same,Ki,dopamine transporter [2],9.8 ± 0.5 nM
same,IC50,5-HT transporter [3],330 ± 75 nM
same,IC50,dopamine transporter [4],13.8 ± 2.6 nM
same,uptake ratio,dopamine transporter [4],24
COC(=O)[C@@H]1[C@@H](c2ccccc2)C[C@@H]2CC[C@H]1N2C (relative stereo) [WF-6],Ki,dopamine transporter [2],2060 ± 545 nM
CC(=O)[C@H]1[C@@H](c2ccc(F)cc2)C[C@@H]2CC[C@H]1N2C (relative stereo) [WF-7],binding ratio,dopamine transporter [2],12.1
CC(=O)[C@H]1[C@@H](c2cccc3ccccc23)C[C@@H]2CC[C@H]1N2C (relative stereo) [WF-8],IC50,5-HT transporter [3],4.55 nM
same,IC50,dopamine transporter [4],20.7 ± 7.7 nM
CCc1ccc([C@H]2C[C@@H]3CC[C@H]([C@H]2C(C)=O)N3C)cc1 (relative stereo) [WF-9],"selectivity towards the 5-HT transporter in terms of binding and inhibition, in words",5-HT transporter [1],considerable selectivity towards the 5-HT transporter
same,binding ratio,dopamine transporter [2],0.51
same,Ki,dopamine transporter [2],152 ± 24 nM
same,IC50,5-HT transporter [3],9.5 ± 5.4 nM
same,IC50,dopamine transporter [4],1160 ± 266 nM
same,uptake ratio,dopamine transporter [4],0.0082
COC(=O)[C@H]1[C@@H](c2ccccc2)C[C@@H]2CC[C@H]1N2C (relative stereo) [WF-10],Ki,dopamine transporter [2],98.8 ± 12.2 nM
CCC(=O)[C@H]1[C@@H](c2ccc(C)cc2)C[C@@H]2CC[C@H]1N2C (relative stereo) [WF-11],"displacement of [^3 H]paroxetine binding, in words",5-HT transporter [1],approximately equipotent with cocaine in displacing [^3 H]paroxetine binding
same,"selectivity between dopamine and 5-HT transporters, in words",5-HT transporter [1],relatively more selective for dopamine transporters
same,times more potent than cocaine at 5-HT transporter sites,5-HT transporter [1],twice
same,binding ratio,dopamine transporter [2],15.9
same,Ki,dopamine transporter [2],8.2 ± 1.6 nM
same,times more potent than cocaine in binding to dopamine transporters,dopamine transporter [2]; [5],20 times
same,IC50,5-HT transporter [3],310 ± 104 nM
same,IC50,dopamine transporter [4],2.21 ± 1.7 nM
same,uptake ratio,dopamine transporter [4],140
same,times more potent in inhibiting dopamine uptake than 5-HT uptake,dopamine transporter [4]; uptake assays,140 times
CCC(=O)[C@@H]1[C@@H](c2ccc(C)cc2)C[C@@H]2CC[C@H]1N2C (relative stereo) [WF-13],Ki,5-HT transporter [1],> 10000 nM
same,Ki,dopamine transporter [2],764 ± 84 nM
CCC(=O)[C@@H]1[C@@H](CC)C[C@@H]2CC[C@H]1N2C (relative stereo) [WF-14],Ki,5-HT transporter [1],> 10000 nM
same,Ki,dopamine transporter [2],> 50000 nM
CC(=O)[C@@H]1[C@@H](c2cccc3ccccc23)C[C@@H]2CC[C@H]1N2C (relative stereo) [WF-15],Ki,dopamine transporter [2],97 ± 21 nM
CCc1ccc([C@H]2C[C@@H]3CC[C@H]([C@@H]2C(C)=O)N3C)cc1 (relative stereo) [WF-16],Ki,5-HT transporter [1],> 10000 nM
same,Ki,dopamine transporter [2],2290 ± 360 nM
Cc1ccc([C@H]2C[C@@H]3CC[C@H]([C@@H]2C(=O)C(C)C)N3C)cc1 (relative stereo) [WF-17],Ki,5-HT transporter [1],> 10000 nM
same,Ki,dopamine transporter [2],2130 ± 266 nM
CCC(=O)[C@H]1[C@@H](CC)C[C@@H]2CC[C@H]1N2C (relative stereo) [WF-18],Ki,dopamine transporter [2],> 50000 nM
CCC(=O)[C@H]1[C@@H](C2CCCCC2)C[C@@H]2CC[C@H]1N2C (relative stereo) [WF-19],Ki,5-HT transporter [1],> 10000 nM
CCC(=O)[C@@H]1[C@@H](c2ccccc2C)C[C@@H]2CC[C@H]1N2C (relative stereo) [WF-21],Ki,5-HT transporter [1]; [6],> 10000 nM
CCC(=O)[C@H]1[C@@H](c2ccccc2C)C[C@@H]2CC[C@H]1N2C (relative stereo) [WF-22],Ki,5-HT transporter [1]; [6],1060 ± 395 nM
same,binding ratio,dopamine transporter [2],1.30
same,Ki,dopamine transporter [2]; read-out:,814 ± 220 nM
CCC(=O)[C@H]1[C@@H](c2ccc3ccccc3c2)C[C@@H]2CC[C@H]1N2C (relative stereo) [WF-23],Ki,5-HT transporter [1],0.63 ± 0.2 nM
same,"displacement of [^3 H]paroxetine binding, in words",5-HT transporter [1],the most potent compounds in displacing [^3 H]paroxetine binding
same,"selectivity between dopamine and 5-HT transporters, in words",5-HT transporter [1],"like cocaine, with little selectivity between the two transporters"
same,times more potent than cocaine at 5-HT transporter sites,5-HT transporter [1],480 times
same,binding ratio,dopamine transporter [2],3.1
same,Ki,dopamine transporter [2],0.2 ± 0.04 nM
same,times more potent than cocaine at both transporters,"dopamine transporter [2]; vs cocaine, dopamine and 5-HT transporter binding",500-800 times
same,"blocking [^3 H]5-HT uptake in cortical cells, in words",5-HT transporter [3],significantly more potent than cocaine in blocking [^3 H]5-HT uptake
same,IC50,5-HT transporter [3],0.27 nM
same,IC50,dopamine transporter [4],0.027 ± 0.016 nM
same,uptake ratio,dopamine transporter [4],10.0
same,"inhibition of [3H]dopamine uptake into striatal cells, in words",dopamine transporter [4],the most potent analog in inhibiting dopamine uptake
same,dopamine: 5-HT ratio,dopamine transporter [4],3-4
CCC(=O)[C@@H]1[C@@H](c2ccc3ccccc3c2)C[C@@H]2CC[C@H]1N2C (relative stereo) [WF-24],binding ratio,dopamine transporter [2],6.53
same,Ki,dopamine transporter [2],2.51 ± 0.82 nM
same,IC50,dopamine transporter [4],5.9 ± 2.4 nM
CCC(=O)[C@H]1[C@@H](c2ccc(C(C)(C)C)cc2)C[C@@H]2CC[C@H]1N2C (relative stereo) [WF-26],binding ratio,dopamine transporter [2],0.84
CCC(=O)[C@H]1[C@@H](c2ccc(C)c3ccccc23)C[C@@H]2CC[C@H]1N2C (relative stereo) [WF-27],"selectivity towards the 5-HT transporter in terms of binding and inhibition, in words",5-HT transporter [1],considerable selectivity towards the 5-HT transporter
same,binding ratio,dopamine transporter [2],0.358
same,Ki,dopamine transporter [2],25.1 ± 0.5 nM
same,IC50,5-HT transporter [3],14.6 nM
same,IC50,dopamine transporter [4],260 ± 98 nM
CCC(=O)[C@H]1[C@@H](c2cccc3ccccc23)C[C@@H]2CC[C@H]1N2C (relative stereo) [WF-30],binding ratio,dopamine transporter [2],3.91
same,Ki,dopamine transporter [2],5.34 ± 1.27 nM
same,IC50,5-HT transporter [3],5.43 nM
same,IC50,dopamine transporter [4],3.66 ± 1.91 nM
same,uptake ratio,dopamine transporter [4],1.46
CCC(=O)[C@H]1[C@@H](c2ccc(C(C)C)cc2)C[C@@H]2CC[C@H]1N2C (relative stereo) [WF-31],"displacement of [^3 H]paroxetine binding, in words",5-HT transporter [1],significantly more potent in displacing [^3 H]paroxetine than cocaine
same,"selectivity towards the 5-HT transporter in terms of binding and inhibition, in words",5-HT transporter [1],considerable selectivity towards the 5-HT transporter
same,Ki,5-HT transporter [1]; [6],54.5 ± 8.9 nM
same,times more potent than cocaine at 5-HT transporter sites,5-HT transporter [1],8 times
same,binding ratio,dopamine transporter [2],0.089
same,"displacement of [^125 I]RTI-55 binding, in words",dopamine transporter [2],less potent in displacing [^125 I]RTI-55 than cocaine
same,Ki,dopamine transporter [2]; read-out:,615 ± 98 nM
same,times less potent than cocaine at dopamine transporters,dopamine transporter [2]; [5],2.5 times
same,"blocking [^3 H]5-HT uptake in cortical cells, in words",5-HT transporter [3],significantly more potent than cocaine in blocking [^3 H]5-HT uptake
same,IC50,5-HT transporter [3],46.9 nM
same,times more potent in inhibiting 5-HT uptake than dopamine uptake,5-HT transporter [3]; uptake assays,120 times
same,"inhibition of [3H]dopamine uptake into striatal cells, in words",dopamine transporter [4],considerably less potent in blocking [3H]dopamine uptake
same,IC50,"dopamine transporter [4]; read-out: DA uptake IC50, striatal cells, fetal and adult rat brain",5840 ± 2600 nM
CC(=O)[C@H]1[C@@H](c2ccc3ccccc3c2)C[C@@H]2CC[C@H]1N2C (relative stereo) [WF-32],binding ratio,dopamine transporter [2],4.27
same,Ki,dopamine transporter [2],0.248 ± 0.15 nM
CCC(=O)[C@H]1[C@@H](c2ccc3cc(OC)ccc3c2)C[C@@H]2CC[C@H]1N2C (relative stereo) [WF-33],"displacement of [^3 H]paroxetine binding, in words",5-HT transporter [1],the most potent compounds in displacing [^3 H]paroxetine binding
same,times less potent than WF-23 in displacing [^3 H]paroxetine binding,5-HT transporter [1]; vs WF-23,4 times
same,times more potent than cocaine at 5-HT transporter sites,5-HT transporter [1],140 times
same,"displacement of [^125 I]RTI-55 binding, in words",dopamine transporter [2],the most potent of these compounds; also recorded: equipotent in displacing [^125 I]RTI-55 binding
CCC(=O)[C@@H]1[C@@H](c2ccc3cc(OC)ccc3c2)C[C@@H]2CC[C@H]1N2C (relative stereo) [WF-34],Ki,5-HT transporter [1],206 ± 81 nM
same,binding ratio,dopamine transporter [2],3.76
same,Ki,dopamine transporter [2],54.7 ± 15 nM
CCC(=O)[C@H]1[C@@H](c2ccc(-c3ccccc3)cc2)C[C@@H]2CC[C@H]1N2C (relative stereo) [WF-35],binding ratio,dopamine transporter [2],1.88
"CCC(=O)C1C(c2ccc3ccccc3c2)CC2CCC1N2C (single isomer, unassigned) [WF-23(1)]","selectivity between dopamine and 5-HT transporters, in words",5-HT transporter [1],the same as the racemic mixture of WF-23
same,binding ratio,dopamine transporter [2],4.2
same,Ki,dopamine transporter [2],113 ± 26 nM
"CCC(=O)C1C(c2ccc3ccccc3c2)CC2CCC1N2C (single isomer, unassigned) [WF-23(2)]",Ki,5-HT transporter [1],0.127 ± 0.05 nM
same,"displacement of [^3 H]paroxetine binding, in words",5-HT transporter [1],also potent vs. [^3 H]paroxetine binding
same,"selectivity between dopamine and 5-HT transporters, in words",5-HT transporter [1],the same as the racemic mixture of WF-23
same,IC50,dopamine transporter [2],~0.03 nM
same,binding ratio,dopamine transporter [2],3.96
same,Ki,dopamine transporter [2],0.032 ± 0.007 nM
same,dopamine: 5-HT ratio,dopamine transporter [4],3-4
